Key:
Assay type in all cases: cell-based
[1] = target: T1, WEE1 (Homo sapiens, UniProt P30291+Q96SW2); experiment: WEE1-ePL degradation assay (293T-LentiX, InCELL Hunter luminescence, 4 hr); conditions: for DC50: LentiX-HEK293T cells expressing WEE1-ePL, 4 hr incubation, read-out: 293T-LentiX WEE1-ePL Degradation 4 hr EC50; for 293T-LentiX WEE1-ePL Degradation 4 hr YMin (%): lower limit of fit, % of DMSO control signal remaining
T1 construct: C-terminal ePL-tagged (DiscoverX, Fremont, CA) full-length WEE1 expression construct; expressed in transfected cells; host or cells: LentiX-HEK293T (Invitrogen), lentivirally transduced; the cells also over-express GSPT1-GN
Outline: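 EC50 comes from a four-parameter logistic fit of ePL luminescence (InCELL Hunter), with DMSO control defining Ymax. Compounds ran as 10-point 3-fold dilutions from 1 or 10 µM for 4 h at 37 °C. Cells were HEK293T-LentiX with ePL-tagged full-length WEE1 and over-expressed Cereblon-resistant GSPT1-GN.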

[2] = tested on: MKN45 cells; experiment: MKN45 cell proliferation assay (Cell-Titer-Glo, 120 hr); conditions: for EC50: Homo sapiens, MKN-45, 120 h, read-out: MKN45 Cell Prolif. 120 hr EC50; for MKN45 Cell Prolif. 120 hr YMin (%): minimal percent of DMSO control observed
From the text: (§1) MKN45 cells were obtained from Celgene internal cell banks and cultured in RPMI complete media (RPMI-1640, 1× Penicillin/Streptomycin, 1× glutamine, 1× Sodium Pyruvate, Non-essential Amino Acids, 10% Fetal Bovine serum, all component from Thermo-Fisher). MDA-MB-231 cells were obtained from the ATCC (HTB-26) and cultured in RPMI-1640 and 10% Fetal Bovine serum; MDA-MB-231 cells were expanded and stored as aliquots in liquid nitrogen in Celgene internal cell banks. Compounds were dispensed into 384-well plates using an HP DE300 compound printer in triplicate with 8 compounds on each plate. Compounds were dispensed into 384-well black clear bottom plates (Corning #3764BC) using an EDC acoustic dispenser at BMS. For each compound, a 10-point dose response was printed at half-log dilutions starting at either 1 uM or 10 uM in triplicate for MKN45 cells and in duplicate for MDA-MB-231 cells. The DMSO concentration was kept constant for a final assay concentration of 0.1% per well assuming 50 ul final media volume. Compound plates were sealed and frozen at −20 C until use.
(§2) For each assay batch, compound plates were thawed and allowed to reach room temperature, and cells were seeded at 400 MKN45 cells per well, or 800 MDA-MB-231 cells per well, in 50 ul media listed above for each cell line. After 120 hours of incubation at 37 C and 5% CO2, cells were lysed by addition of 25 μL of Cell-Titer-Glo Reagent (Promega Corporation, Madison, WI), as per manufacturer's instructions, protected from light, shaken for 45 minutes, and total luminescence read by a Perkin Elmer Envision plate reader. Total luminescence signal is linearly correlated with cell number remaining in the well.
(§3) Luminescence data was processed per plate by subtracting reagent-only “blank” well luminescence from all measured values and calculating a percent of DMSO control value for each treatment well. Then, to determine the half-maximal effective concentration (EC50) values for cell growth inhibition, a four parameter logistic model was fit to the data for each DMSO-normalized compound: Sigmoidal Dose-Response Model: (FIT=(A+((B−A)/1+((C/x)^D)))) where C is the inflection point ([…]), D is the Hill slope, and A and B are the low and high limits of the fit respectively. The lower limit of the fit (value A) is referred to as Ymin-calculated. The minimal percent of DMSO control that is observed in the concentrations tested for each compound is labeled as “Ymin-obs”, and was recorded and reported in the tables. Sigmoidal fit curves were processed and evaluated using Activity Base (IDBS, Alameda, CA) or using Dotmatics (Boston, MA). N/A=not available at the present time.

[3] = tested on: MDA-MB-231 cells; experiment: MDA-MB-231 cell proliferation assay (Cell-Titer-Glo, 120 hr); conditions: for EC50: Homo sapiens, MDA-MB-231, 120 h, read-out: MDA-MB 231 Cell Prolif. 120 hr EC50; for MDA-MB 231 Cell Prolif. 120 hr YMin (%): minimal percent of DMSO control observed
From the text: as §1, §2, §3

T1 sequence (P30291 whole entry): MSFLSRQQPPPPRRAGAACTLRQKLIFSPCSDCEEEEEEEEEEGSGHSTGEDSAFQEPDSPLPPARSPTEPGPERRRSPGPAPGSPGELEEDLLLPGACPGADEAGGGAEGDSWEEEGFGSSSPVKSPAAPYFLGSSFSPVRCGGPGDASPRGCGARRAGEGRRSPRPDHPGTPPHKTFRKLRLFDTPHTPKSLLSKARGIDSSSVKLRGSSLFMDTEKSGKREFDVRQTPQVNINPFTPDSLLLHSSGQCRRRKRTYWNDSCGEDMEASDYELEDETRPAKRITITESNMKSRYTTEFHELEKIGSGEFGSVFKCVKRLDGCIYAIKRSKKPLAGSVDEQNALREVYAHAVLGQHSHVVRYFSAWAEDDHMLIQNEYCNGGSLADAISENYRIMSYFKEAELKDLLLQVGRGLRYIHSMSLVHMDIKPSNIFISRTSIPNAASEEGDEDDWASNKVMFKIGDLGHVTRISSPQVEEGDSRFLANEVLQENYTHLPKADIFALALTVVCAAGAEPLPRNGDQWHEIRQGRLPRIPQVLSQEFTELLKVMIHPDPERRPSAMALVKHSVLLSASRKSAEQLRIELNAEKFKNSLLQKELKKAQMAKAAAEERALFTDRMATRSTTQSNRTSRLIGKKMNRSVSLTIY
T1 sequence (Q96SW2 whole entry): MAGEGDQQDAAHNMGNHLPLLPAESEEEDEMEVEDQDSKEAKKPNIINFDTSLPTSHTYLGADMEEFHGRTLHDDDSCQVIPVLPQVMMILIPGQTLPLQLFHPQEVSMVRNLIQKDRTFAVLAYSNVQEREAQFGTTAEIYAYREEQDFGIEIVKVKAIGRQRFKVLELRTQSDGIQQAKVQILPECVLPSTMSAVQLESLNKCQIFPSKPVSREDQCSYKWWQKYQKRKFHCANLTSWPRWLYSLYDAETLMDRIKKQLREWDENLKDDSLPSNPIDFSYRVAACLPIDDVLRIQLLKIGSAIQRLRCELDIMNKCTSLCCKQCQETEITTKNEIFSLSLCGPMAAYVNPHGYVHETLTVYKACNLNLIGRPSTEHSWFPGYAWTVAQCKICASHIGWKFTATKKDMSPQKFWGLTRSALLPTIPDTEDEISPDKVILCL
T1 sequence (Q16531 whole entry partner): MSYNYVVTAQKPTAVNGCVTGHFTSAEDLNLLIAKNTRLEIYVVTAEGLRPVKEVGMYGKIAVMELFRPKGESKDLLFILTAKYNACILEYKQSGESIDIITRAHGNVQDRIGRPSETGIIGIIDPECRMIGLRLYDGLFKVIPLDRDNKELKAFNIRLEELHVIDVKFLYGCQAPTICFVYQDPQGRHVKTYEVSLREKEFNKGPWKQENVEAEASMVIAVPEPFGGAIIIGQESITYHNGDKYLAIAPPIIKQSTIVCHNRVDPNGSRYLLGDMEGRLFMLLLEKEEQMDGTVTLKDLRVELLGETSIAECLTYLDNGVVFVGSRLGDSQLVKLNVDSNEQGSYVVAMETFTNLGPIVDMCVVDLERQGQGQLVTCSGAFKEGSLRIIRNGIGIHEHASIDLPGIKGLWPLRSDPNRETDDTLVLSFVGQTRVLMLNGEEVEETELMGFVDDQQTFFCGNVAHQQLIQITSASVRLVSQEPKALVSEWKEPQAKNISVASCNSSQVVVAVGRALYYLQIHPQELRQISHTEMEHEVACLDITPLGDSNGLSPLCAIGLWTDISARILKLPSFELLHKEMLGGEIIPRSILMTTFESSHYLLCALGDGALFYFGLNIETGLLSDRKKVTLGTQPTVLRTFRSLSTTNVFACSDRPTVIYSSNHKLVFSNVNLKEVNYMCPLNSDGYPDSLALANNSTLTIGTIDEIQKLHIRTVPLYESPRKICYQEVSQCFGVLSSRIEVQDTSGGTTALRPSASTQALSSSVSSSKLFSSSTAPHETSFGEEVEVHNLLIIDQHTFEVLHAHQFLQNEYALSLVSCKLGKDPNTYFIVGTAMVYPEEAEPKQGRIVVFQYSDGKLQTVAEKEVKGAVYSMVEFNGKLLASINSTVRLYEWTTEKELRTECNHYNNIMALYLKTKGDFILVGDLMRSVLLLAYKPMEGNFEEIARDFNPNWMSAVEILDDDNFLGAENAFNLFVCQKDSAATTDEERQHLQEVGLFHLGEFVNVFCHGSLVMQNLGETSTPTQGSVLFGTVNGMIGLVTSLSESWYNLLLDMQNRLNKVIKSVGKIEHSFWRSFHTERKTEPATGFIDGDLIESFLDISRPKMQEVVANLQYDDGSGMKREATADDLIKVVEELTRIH

DC50 [1] | 293T-LentiX WEE1-ePL Degradation 4 hr YMin (%) [1] | EC50 [2] | EC50 [3] | Structure (SMILES) | MKN45 Cell Prolif. 120 hr YMin (%) [2] | MDA-MB 231 Cell Prolif. 120 hr YMin (%) [3]
1 nM | 28.9% | 1 nM | 18 nM | COC[C@@H]1CN(Cc2cc(F)c3nc(C4CCCOC4)ccc3c2)C[C@H]1Oc1ccc2c(c1)CN([C@H]1CCC(=O)NC1=O)C2=O (relative stereo) [Example 70, rel-(3S)-3-(5-{[(3S,4S)-1-{[8-fluoro-2-(oxan-3-yl)quinolin-6-yl]methyl}-4-(methoxymethyl)pyrrolidin-3-yl]oxy}-1-oxo-2,3-dihydro-1H-isoindol-2-yl)piperidine-2,6-dione] | 11.9% | 26.1%
23 nM | 25.5% | 43 nM | 332 nM | COC[C@@H]1CN(Cc2cc(F)c3nc(C4CCCN4C)ncc3c2)C[C@H]1Oc1ccc2c(c1)CN([C@H]1CCC(=O)NC1=O)C2=O (relative stereo) [Example 77, rel-(3S)-3-(5-{[(3S,4S)-1-{[8-fluoro-2-(1-methylpyrrolidin-2-yl)quinazolin-6-yl]methyl}-4-(methoxymethyl)pyrrolidin-3-yl]oxy}-1-oxo-2,3-dihydro-1H-isoindol-2-yl)piperidine-2,6-dione] | 13.1% | 80.1%
3 nM | 27.1% | 4 nM | 27 nM | COC[C@@H]1CN(Cc2cc(F)c3nc(C4CCCOC4)ncc3c2)C[C@H]1Oc1ccc2c(c1)CN([C@H]1CCC(=O)NC1=O)C2=O (relative stereo) [Example 78, rel-(3S)-3-(5-{[(3S,4S)-1-{[8-fluoro-2-(oxan-3-yl)quinazolin-6-yl]methyl}-4-(methoxymethyl)pyrrolidin-3-yl]oxy}-1-oxo-2,3-dihydro-1H-isoindol-2-yl)piperidine-2,6-dione] | 7.7% | 22.5%
7 nM | 29.4% | 9 nM | 123 nM | COC[C@@H]1CN(Cc2cc(F)c3nc(C4CCCCO4)ncc3c2)C[C@H]1Oc1ccc2c(c1)CN([C@H]1CCC(=O)NC1=O)C2=O (relative stereo) [Example 96, rel-(3S)-3-(5-{[(3S,4S)-1-{[8-fluoro-2-(oxan-2-yl)quinazolin-6-yl]methyl}-4-(methoxymethyl)pyrrolidin-3-yl]oxy}-1-oxo-2,3-dihydro-1H-isoindol-2-yl)piperidine-2,6-dione] | 11.4% | 28.4%
75 nM | 39.0% | 282 nM | 73 nM | O=C(O)CC(CCO)c1ccc2cc(CN3CC[C@H](Oc4ccc5c(c4)CN([C@H]4CCC(=O)NC4=O)C5=O)C3)cc(F)c2n1 (relative stereo) [Example 99, rel-3-(6-{[(3S)-3-({2-[(3S)-2,6-dioxopiperidin-3-yl]-1-oxo-2,3-dihydro-1H-isoindol-5-yl}oxy)pyrrolidin-1-yl]methyl}-8-fluoroquinolin-2-yl)-5-hydroxypentanoic acid] | 82.9% | 78.7%
1 nM | 27.1% | 1 nM | 26 nM | COC[C@@H]1CN(Cc2cc(F)c3nc(C4CCC(C(C)(C)O)CC4)ncc3c2)C[C@H]1Oc1ccc2c(c1)CN([C@H]1CCC(=O)NC1=O)C2=O (relative stereo) [Example 111, rel-(S)-3-(5-(((3S,4S)-1-((8-fluoro-2-(4-(2-hydroxypropan-2-yl)cyclohexyl)quinazolin-6-yl)methyl)-4-(methoxymethyl)pyrrolidin-3-yl)oxy)-1-oxoisoindolin-2-yl)piperidine-2,6-dione] | 7.8% | 16.4%
1 nM | 28.0% |  | 12 nM | COC[C@@H]1CN(Cc2cc3ccc(C4CCC(C(C)(C)O)CC4)cc3cn2)C[C@H]1Oc1ccc2c(c1)CN([C@H]1CCC(=O)NC1=O)C2=O (relative stereo) [Example 112, rel-(S)-3-(5-(((3S,4S)-1-((7-(4-(2-hydroxypropan-2-yl)cyclohexyl)isoquinolin-3-yl)methyl)-4-(methoxymethyl)pyrrolidin-3-yl)oxy)-1-oxoisoindolin-2-yl)piperidine-2,6-dione] | 8.7% | 25.2%
 | 85.0% | 1 nM | 2590 nM | O=C1CC[C@H](N2Cc3cc(O[C@@H]4CN(Cc5cc(F)c6nc(C7CCOCC7)ccc6c5)C[C@H]4c4ccccc4)ccc3C2=O)C(=O)N1 (relative stereo) [Example 116, (S)-3-(5-(((3S*,4R*)-1-((8-fluoro-2-(tetrahydro-2H-pyran-4-yl)quinolin-6-yl)methyl)-4-phenylpyrrolidin-3-yl)oxy)-1-oxoisoindolin-2-yl)piperidine-2,6-dione] | 83.5% | 89.1%
 | 92.4% |  | 286 nM | O=C1CC[C@H](N2Cc3cc(O[C@@H]4CN(Cc5cc(F)c6nc(C7CCOCC7)ccc6c5)C[C@H]4c4ccncc4)ccc3C2=O)C(=O)N1 (relative stereo) [Example 118, (S)-3-(5-(((3S*,4R*)-1-((8-fluoro-2-(tetrahydro-2H-pyran-4-yl)quinolin-6-yl)methyl)-4-(pyridin-4-yl)pyrrolidin-3-yl)oxy)-1-oxoisoindolin-2-yl)piperidine-2,6-dione] | 65.0% | 70.2%
 | 82.5% |  | 3490 nM | O=C1CC[C@H](N2Cc3cc(O[C@@H]4CN(Cc5cc(F)c6nc(C7CCOCC7)ccc6c5)C[C@H]4C4CCCC4)ccc3C2=O)C(=O)N1 (relative stereo) [Example 123, (S)-3-(5-(((3S*,4R*)-4-Cyclopentyl-1-((8-fluoro-2-(tetrahydro-2H-pyran-4-yl)-quinolin-6-yl)methyl)pyrrolidin-3-yl)oxy)-1-oxoisoindolin-2-yl)piperidine-2,6-dione] | 80.9% | 81.9%
3 nM | 20.2% | 12 nM | 278 nM | Cc1cc([C@@H]2CN(Cc3cc(F)c4nc(C5CCOCC5)ccc4c3)C[C@H]2Oc2ccc3c(c2)CN([C@H]2CCC(=O)NC2=O)C3=O)cc(C)n1 (relative stereo) [Example 127, (3S)-3-(5-{[(3S*,4R*)-4-(2,6-dimethylpyridin-4-yl)-1-{[8-fluoro-2-(oxan-4-yl)quinolin-6-yl]methyl}pyrrolidin-3-yl]oxy}-1-oxo-2,3-dihydro-1H-isoindol-2-yl)piperidine-2,6-dione] | 9.8% | 40.1%
6 nM | 78.0% | 1 nM | 5960 nM | CC(C)C[C@@H]1CN(Cc2cc(F)c3nc(C4CCOCC4)ccc3c2)C[C@H]1Oc1ccc2c(c1)CN([C@H]1CCC(=O)NC1=O)C2=O (relative stereo) [Example 130, (3S)-3-(5-{[(3S*,4R*)-1-{[8-fluoro-2-(oxan-4-yl)quinolin-6-yl]methyl}-4-(2-methylpropyl)pyrrolidin-3-yl]oxy}-1-oxo-2,3-dihydro-1H-isoindol-2-yl)piperidine-2,6-dione] | 94.4% | 84.1%
